Data as given in patent US9243281B2, “Neuroprotective chemicals and methods for identifying and using same” (Board of Regents of The University of Texas System, priority 2013, dated 2016).

Test system: hippocampal neurogenesis (Dentate Gyrus)
Experiment: in vivo neurogenesis assay (BrdU+ cells in dentate gyrus)
Parameters: species or system mice
Settings: living mice; vehicle (DMSO) 7.3
Procedure, shortened: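 New hippocampal cells were tracked by daily BrdU injections and anti-BrdU staining of brain sections. Adult mice (two per pool of ten compounds) got week-long intracerebroventricular infusion by mini-pump, dosed for mid-nanomolar exposure.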

| Compound | Neurogenesis # BrdU+ Cells (X10E06)/mm3 Dentate Gyrus |
| --- | --- |
| COc1cccc(NCC(=O)Cn2c3ccc(Br)cc3c3cc(Br)ccc32)c1 [S3] | 9.2 (X10E06)/mm3 |
| COc1cccc(NC(SC)C(=O)Cn2c3ccc(Br)cc3c3cc(Br)ccc32)c1 (stereo not shown) [S4] | 11.7 (X10E06)/mm3 |
| COc1cccc(N(C)CC(F)Cn2c3ccc(Br)cc3c3cc(Br)ccc32)c1 (stereo not shown) [S11] | 12.8 (X10E06)/mm3 |
| COc1cccc(N2CC(Cn3c4ccc(Br)cc4c4cc(Br)ccc43)OC2=O)c1 (stereo not shown) [S12] | 10.8 (X10E06)/mm3 |
| COc1cccc(NCC(Cn2c3ccc(Br)cc3c3cc(Br)ccc32)OC)c1 (stereo not shown) [S13] | 11.6 (X10E06)/mm3 |
| Brc1ccc2c(c1)c1cc(Br)ccc1n2CCCNc1ccccc1 [S33] | 11.6 (X10E06)/mm3 |
| O=S(=O)(CC(F)Cn1c2ccc(Br)cc2c2cc(Br)ccc21)c1ccccc1 (stereo not shown) [S53] | 17.1 (X10E06)/mm3 |
| FC(F)(COc1ccccc1)Cn1c2ccc(Br)cc2c2cc(Br)ccc21 [S56] | 8.4 (X10E06)/mm3 |
| COc1cccc(NCC(F)(F)Cn2c3ccc(Br)cc3c3cc(Br)ccc32)c1 [S59] | 10.7 (X10E06)/mm3 |
| COCCOCCOc1ccc(NCC(F)Cn2c3ccc(Br)cc3c3cc(Br)ccc32)cc1 (stereo not shown) [S66] | 9.7 (X10E06)/mm3 |
| COc1cccc(S(=O)(=O)CC(F)Cn2c3ccc(Br)cc3c3cc(Br)ccc32)c1 (stereo not shown) [S81] | 12.6 (X10E06)/mm3 |
| COc1ccc(S(=O)(=O)CC(F)Cn2c3ccc(Br)cc3c3cc(Br)ccc32)cc1 (stereo not shown) [S83] | 12.5 (X10E06)/mm3 |
| O=S(=O)(CC(F)Cn1c2ccc(Br)cc2c2cc(Br)ccc21)c1cccc(O)c1 (stereo not shown) [S101] | 9.9 (X10E06)/mm3 |
| [O-][n+]1cccc2c1c1cc(Br)ccc1n2CC(O)COc1ccccc1 (stereo not shown) [S198] | 11.0 (X10E06)/mm3 |
| CCOC(=O)C1=C[C@]2(CC)CCCN3CCc4c(n1c1ccccc41)[C@@H]32 [S199] | 13.3 (X10E06)/mm3 |
| CCC(C)N(C)C(=O)c1cc2ccccc2c(-c2ccccc2Cl)n1 (stereo not shown) [S200, PK11195, reference compound] | 11.1 (X10E06)/mm3 |
| OCc1cc2c(cn1)[nH]c1ccc(Br)cc12 [S204] | 14.2 (X10E06)/mm3 |
| CCOC(=O)c1cc2c(cn1)[nH]c1ccc(Br)cc12 [S205] | 14.6 (X10E06)/mm3 |
| O=C(O)c1cc2c(cn1)[nH]c1ccc(Br)cc12 [S206] | 14.8 (X10E06)/mm3 |
| NC(Cc1c[nH]c2ccc(Br)cc12)C(=O)O (stereo not shown) [S207] | 16.2 (X10E06)/mm3 |
| COc1ccc2[nH]c3ccc(Br)cc3c2c1 [S209] | 15.0 (X10E06)/mm3 |
| O=C(O)CN1c2ccccc2CCc2ccccc21 [S210] | 10.7 (X10E06)/mm3 |
| CC(C(=O)O)n1c2ccc(Br)cc2c2cc(Br)ccc21 (stereo not shown) [S211] | 11.5 (X10E06)/mm3 |
| CNC(=O)Cn1c2ccc(Br)cc2c2cc(Br)ccc21 [S214] | 9.9 (X10E06)/mm3 |

Biological target: T1, p70 (NAMPT) (Homo sapiens, UniProt P43490)
T1 construct: endogenous in cells; host or cells: H2122 lung cancer cells
Experiment: binding competition for photo-crosslinking of P7C3-S326 to p70 in H2122 cells
Settings: 0.3 μM P7C3-S326 plus 5 μM competitor, p70 band intensity, P7C3-S326 alone compared with plus competitor, vehicle 1.0
Procedure, shortened: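 Competition for photo-crosslinking: P7C3 analogs (5 uM) were added alongside the 0.3 μM P7C3-S326 probe to H2122 cells for 2 hours before 15 minutes of 306 nm UV irradiation. In-gel fluorescence of the p70 band after click labeling was normalized to DMSO.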

T1 sequence (P43490 whole entry): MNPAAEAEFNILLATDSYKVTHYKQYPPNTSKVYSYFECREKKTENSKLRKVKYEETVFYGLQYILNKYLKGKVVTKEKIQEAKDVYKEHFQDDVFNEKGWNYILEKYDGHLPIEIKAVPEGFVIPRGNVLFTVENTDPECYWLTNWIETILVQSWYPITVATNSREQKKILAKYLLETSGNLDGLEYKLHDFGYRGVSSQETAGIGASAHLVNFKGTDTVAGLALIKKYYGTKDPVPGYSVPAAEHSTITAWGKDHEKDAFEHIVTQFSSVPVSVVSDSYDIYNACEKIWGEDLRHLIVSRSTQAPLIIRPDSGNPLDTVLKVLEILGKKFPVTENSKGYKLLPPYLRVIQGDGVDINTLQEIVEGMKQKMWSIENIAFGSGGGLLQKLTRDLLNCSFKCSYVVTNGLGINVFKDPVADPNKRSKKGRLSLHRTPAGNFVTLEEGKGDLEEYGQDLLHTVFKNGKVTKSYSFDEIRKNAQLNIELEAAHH

| Compound | Binding competition |
| --- | --- |
| COc1cccc(NCC(=O)Cn2c3ccc(Br)cc3c3cc(Br)ccc32)c1 [S3] | 2.3 |
| COc1cccc(NC(SC)C(=O)Cn2c3ccc(Br)cc3c3cc(Br)ccc32)c1 (stereo not shown) [S4] | 1.4 |
| COc1cccc(N(C)CC(F)Cn2c3ccc(Br)cc3c3cc(Br)ccc32)c1 (stereo not shown) [S11] | 2.0 |
| COc1cccc(N2CC(Cn3c4ccc(Br)cc4c4cc(Br)ccc43)OC2=O)c1 (stereo not shown) [S12] | 2.4 |
| COc1cccc(NCC(Cn2c3ccc(Br)cc3c3cc(Br)ccc32)OC)c1 (stereo not shown) [S13] | 1.7 |
| Brc1ccc2c(c1)c1cc(Br)ccc1n2CCCNc1ccccc1 [S33] | 2.8 |
| O=S(=O)(CC(F)Cn1c2ccc(Br)cc2c2cc(Br)ccc21)c1ccccc1 (stereo not shown) [S53] | 1.4 |
| FC(F)(COc1ccccc1)Cn1c2ccc(Br)cc2c2cc(Br)ccc21 [S56] | 1.0 |
| COc1cccc(NCC(F)(F)Cn2c3ccc(Br)cc3c3cc(Br)ccc32)c1 [S59] | 1.2 |
| COCCOCCOc1ccc(NCC(F)Cn2c3ccc(Br)cc3c3cc(Br)ccc32)cc1 (stereo not shown) [S66] | 3.5 |
| COc1cccc(S(=O)(=O)CC(F)Cn2c3ccc(Br)cc3c3cc(Br)ccc32)c1 (stereo not shown) [S81] | 1.2 |
| COc1ccc(S(=O)(=O)CC(F)Cn2c3ccc(Br)cc3c3cc(Br)ccc32)cc1 (stereo not shown) [S83] | 1.0 |
| O=S(=O)(CC(F)Cn1c2ccc(Br)cc2c2cc(Br)ccc21)c1cccc(O)c1 (stereo not shown) [S101] | 2.4 |
| [O-][n+]1cccc2c1c1cc(Br)ccc1n2CC(O)COc1ccccc1 (stereo not shown) [S198] | 5.1 |
| CCOC(=O)C1=C[C@]2(CC)CCCN3CCc4c(n1c1ccccc41)[C@@H]32 [S199] | 1.1 |
| CCC(C)N(C)C(=O)c1cc2ccccc2c(-c2ccccc2Cl)n1 (stereo not shown) [S200, PK11195, reference compound] | 1.3 |
| OCc1cc2c(cn1)[nH]c1ccc(Br)cc12 [S204] | 2.3 |
| CCOC(=O)c1cc2c(cn1)[nH]c1ccc(Br)cc12 [S205] | 2.5 |
| O=C(O)c1cc2c(cn1)[nH]c1ccc(Br)cc12 [S206] | 1.4 |
| NC(Cc1c[nH]c2ccc(Br)cc12)C(=O)O (stereo not shown) [S207] | 1.1 |
| COc1ccc2[nH]c3ccc(Br)cc3c2c1 [S209] | 3.7 |
| O=C(O)CN1c2ccccc2CCc2ccccc21 [S210] | 1.1 |
| CC(C(=O)O)n1c2ccc(Br)cc2c2cc(Br)ccc21 (stereo not shown) [S211] | 1.2 |
| CNC(=O)Cn1c2ccc(Br)cc2c2cc(Br)ccc21 [S214] | 1.7 |

Biological target: T2, Human NAMPT (Homo sapiens, UniProt P43490)
T2 construct: made in house; host or cells: E. coli
Experiment: in vitro NAMPT coupled-enzyme assay (NADH at OD340 nm)
Format: biochemical
Settings: relative reaction rate normalized by the control reaction run prior to compound addition; vehicle 0.98
Description: FIGS. 7A-7C. […] (FIG. 7A) P7C3-A20 was incubated at indicated concentrations in a reaction coupled with three enzymes; NAMPT, NMNAT, and ADH (Experimental Procedures). NAMPT activity was recorded for the indicated period of time at OD340 nm by measuring NADH appearance, leading to the indicated concentration-time plot. […] (FIG. 7B) Analysis of the activities of thirty P7C3 analogs was performed to assess their effects on NAMPT enzymatic activity. The reaction rate was calculated as the slope of the concentration-time curve. Relative reaction rate was normalized by the control reaction run prior to compound addition. Data represents the mean of experimental duplicates. Scatter graphs were plotted to compare the ability of compounds to activate NAMPT relative to their ability to compete away P7C3-S326 crosslinking (top scatter plot), ability to protect cells from doxorubicin-mediated toxicity (middle scatter plot), or ability to facilitate NAD restoration in doxorubicin-treated cells (bottom scatter plot). […] Data are expressed as mean±SD of duplicate independent assays.
The enzymatic activity of recombinant NAMPT was monitored in a coupled assay wherein nicotinamide conversion to NMN was followed by sequential production of NAD (via the NMNAT enzyme) and NADH (via alcohol dehydrogenase). To minimize variation, a control reaction was run in each assay prior to compound addition.
Briefly, NAMPT first converted nicotinamide to NMN, which was followed by sequential production of NAD via nicotinamide mononucleotide adenylyl-transferase (NMNAT). NAD was then reduced to NADH by alcohol dehydrogenase (Sigma) using alcohol as the substrate. The resulting NADH was monitored by OD340 nm. […] 10 mM stocks of P7C3 analogs in DMSO were further diluted in ethanol prior to applying to the reaction. To minimize variation, a control reaction was run in each assay prior to compound addition.

T2 sequence (P43490 whole entry): as above

| Compound | NAMPT activation |
| --- | --- |
| COc1cccc(NCC(=O)Cn2c3ccc(Br)cc3c3cc(Br)ccc32)c1 [S3] | 1.06 |
| COc1cccc(NC(SC)C(=O)Cn2c3ccc(Br)cc3c3cc(Br)ccc32)c1 (stereo not shown) [S4] | 1.01 |
| COc1cccc(N(C)CC(F)Cn2c3ccc(Br)cc3c3cc(Br)ccc32)c1 (stereo not shown) [S11] | 1.21 |
| COc1cccc(N2CC(Cn3c4ccc(Br)cc4c4cc(Br)ccc43)OC2=O)c1 (stereo not shown) [S12] | 1.24 |
| COc1cccc(NCC(Cn2c3ccc(Br)cc3c3cc(Br)ccc32)OC)c1 (stereo not shown) [S13] | 1.21 |
| Brc1ccc2c(c1)c1cc(Br)ccc1n2CCCNc1ccccc1 [S33] | 1.12 |
| O=S(=O)(CC(F)Cn1c2ccc(Br)cc2c2cc(Br)ccc21)c1ccccc1 (stereo not shown) [S53] | 1.05 |
| FC(F)(COc1ccccc1)Cn1c2ccc(Br)cc2c2cc(Br)ccc21 [S56] | 1.06 |
| COc1cccc(NCC(F)(F)Cn2c3ccc(Br)cc3c3cc(Br)ccc32)c1 [S59] | 1.02 |
| COCCOCCOc1ccc(NCC(F)Cn2c3ccc(Br)cc3c3cc(Br)ccc32)cc1 (stereo not shown) [S66] | 1.21 |
| COc1cccc(S(=O)(=O)CC(F)Cn2c3ccc(Br)cc3c3cc(Br)ccc32)c1 (stereo not shown) [S81] | 0.96 |
| COc1ccc(S(=O)(=O)CC(F)Cn2c3ccc(Br)cc3c3cc(Br)ccc32)cc1 (stereo not shown) [S83] | 1.01 |
| O=S(=O)(CC(F)Cn1c2ccc(Br)cc2c2cc(Br)ccc21)c1cccc(O)c1 (stereo not shown) [S101] | 1.12 |
